Read-outs that look alike come from different tables or passages of the source.
Tests used:
[1] = test system: HCV replicon; test: microbe, parasite or virus in culture; type: cell-based, hepatitis C virus; details: Hepatitis C virus

| Compound | IC50 ([1]; read-out: Replicon IC50 μM) [µM] | melting point [°C] | IC50 ([1]; read-out: Replicon IC50) [µM] |
| --- | --- | --- | --- |
| COC(=O)c1cccc(-c2noc(-c3[nH]c4cc(OC)ccc4c3C#N)n2)c1 [Compound 226, methyl 3-[5-(3-cyano-6-methoxy-1H-indol-2-yl)-[1,2,4]oxadiazol-3-yl]benzoate] | > 2 | 294 to 295 | – |
| CCn1c(C#Cc2ccc(NC(=O)NCCCl)cc2)c(C#N)c2ccc(OC)cc21 [Compound 156, 1-(2-chloroethyl)-3-[4-(3-cyano-1-ethyl-6-methoxy-1H-indol-2-ylethynyl)-phenyl]urea] | 0.5 to 2 | 205 to 209 | – |
| CCn1c(-c2ccc(N(C)S(=O)(=O)CCN3CCOCC3)cc2)c(C#N)c2ccc(OC)cc21 [Compound 668] | 0.5 to 2 | 171 to 174 | – |
| CCn1c(-c2ccc(N3CCCS3(=O)=O)cc2)c(C#N)c2ccc(OCCN3CCOCC3)cc21 [Compound 729, 2-[4-(1,1-dioxo-1λ^6-isothiazolidin-2-yl)-phenyl]-1-ethyl-6-(2-morpholin-4-yl-ethoxy)-1H-indole-3-carbonitrile] | > 2 | 213 to 217 | – |
| CCOC(=O)Nc1ccc(-c2c(C#N)c3ccc(OC)cc3n2CC)cc1 [Compound 121, [4-(3-cyano-1-ethyl-6-methoxy-1H-indol-2-yl)-phenyl]-carbamic acid ethyl ester] | 0.5 to 2 | 167 to 169 | – |
| CCn1c(-c2ccc(OCC(=O)N3CC[C@H](O)C3)cc2)c(C#N)c2ccc(OC)cc21 [Compound 285, 1-ethyl-2-{4-[2-(3-hydroxypyrrolidin-1-yl)-2-oxo-ethoxy]phenyl}-6-methoxy-1H-indole-3-carbonitrile] | > 2 | 185 to 190 | – |
| CCOC(=O)c1c(C)n(-c2ccc(OC)cc2)c2ccc(OC(F)F)cc12 [Compound 49, ethyl 5-difluoromethoxy-1-(4-methoxyphenyl)-2-methyl-1H-indole-3-carboxylate] | > 2 | 89 to 90 | – |
| CCOC(=O)Nc1ccc2c(C#N)c(-c3ccc(OCC)cc3)n(CC)c2c1 [Compound 838, [3-cyano-2-(4-ethoxyphenyl)-1-ethyl-1H-indol-6-yl]-carbamic acid ethyl ester] | 0.5 to 2 | 193 to 194 | – |
| CCn1c(-c2ccc(N3CCCS3(=O)=O)cc2)c(C#N)c2ccc(OC)cc21 [Compound 84, 2-[4-(1,1-dioxo-1λ^6-isothiazolidin-2-yl)phenyl]-1-ethyl-6-methoxy-1H-indole-3-carbonitrile] | < 0.5 | 232 to 237 | – |
| CCn1c(C#Cc2ccc(N(C)S(=O)(=O)CC)cc2)c(C#N)c2ccc(OC)cc21 [Compound 157] | 0.5 to 2 | 149 to 153 | – |
| CCn1c(-c2ccc(NC(C)=O)cc2)c(C#N)c2ccc(OC)cc21 [Compound 128, N-[4-(3-Cyano-1-ethyl-6-methoxy-1H-indol-2-yl)-phenyl]-acetamide] | > 2 | 218 to 220 | – |
| CCn1c(C#Cc2ccc(N3CCNC3=O)cc2)c(C#N)c2ccc(OC)cc21 [Compound 166, 1-ethyl-6-methoxy-2-[4-(2-oxo-imidazolidin-1-yl)-phenylethynyl]-1H-indole-3-carbonitrile] | < 0.5 | 236 to 240 | – |
| CCOc1ccc2c(C#N)c(-c3ccc(NC(=O)NC(Cc4ccccc4)C(=O)OC)cc3)n(CC)c2c1 (stereo not shown) [Compound 777, methyl 2-{3-[4-(3-cyano-6-ethoxy-1-ethyl-1H-indol-2-yl)-phenyl]-ureido}-3-phenyl-propionate] | < 0.5 | 124 to 127 | – |
| CCn1c(-c2ccc(O)c(N)c2)c(C#N)c2ccc(OC)cc21 [Compound 322, 2-(3-amino-4-hydroxyphenyl)-1-ethyl-6-methoxy-1H-indole-3-carbonitrile] | > 2 | 223 to 230 | – |
| CCn1c(I)c(C#N)c2cc([N+](=O)[O-])c(OC)cc21 [Compound 499, 1-ethyl-2-iodo-6-methoxy-5-nitro-1H-indole-3-carbonitrile] | – | 235 to 250 | < 0.5 |
| N#Cc1c(-n2cccc2)[nH]c2cc([N+](=O)[O-])ccc12 [Compound 7, 6-nitro-2-pyrrol-1-yl-1H-indole-3-carbonitrile] | 0.5 to 2 | 304 to 305 | – |
| CCOc1ccc(-c2c(C#N)c3ccc(Br)cc3n2CC)cc1 [Compound 831, 6-Bromo-2-(4-ethoxyphenyl)-1-ethyl-1H-indole-3-carbonitrile] | > 2 | 140 to 141 | – |
| CCn1c(-c2cccc(NC(N)=S)c2)c(C#N)c2ccc(OC)cc21 [Compound 767, [3-(3-cyano-1-ethyl-6-methoxy-1H-indol-2-yl)-phenyl]-thiourea] | < 0.5 | 204 to 205 | – |
| CCOc1ccc2c(C#N)c(-c3ccc(N4CC(=O)NC4=O)cc3)n(CC)c2c1 [Compound 776, 2-[4-(2,4-dioxo-imidazolidin-1-yl)phenyl]-6-ethoxy-1-ethyl-1H-indole-3-carbonitrile] | < 0.5 | 257 to 258 | – |

| Compound | IC50 ([1]; read-out: Replicon IC50 μM) [µM] | melting point [°C] | IC50 ([1]; read-out: Replicon IC50) [µM] |
| --- | --- | --- | --- |
| CCn1cc(C#N)c2cc(-c3ccsc3)ccc21 [Compound 141, 1-ethyl-5-thiophen-3-yl-1H-indole-3-carbonitrile] | > 2 | 145 to 146 | – |
| CCn1c(N2CCN(S(=O)(=O)C3CC3)CC2)c(C#N)c2ccc(C(F)(F)F)cc21 [Compound 842, 2-[4-(cyclopropylsulfonyl)piperazin-1-yl]-1-ethyl-6-(trifluoromethyl)-1H-indole-3-carbonitrile] | > 2 | 170 to 171 | – |
| CCn1c(-c2ccc(OCCBr)cc2)c(C#N)c2ccc(OC)cc21 [Compound 253, 2-[4-(2-bromoethoxy)-phenyl]-1-ethyl-6-methoxy-1H-indole-3-carbonitrile] | 0.5 to 2 | 121 to 125 | – |
| CCOc1ccc(-c2c(C#N)c3ccc(N)cc3n2CC)cc1 [Compound 833, 6-amino-2-(4-ethoxyphenyl)-1-ethyl-1H-indole-3-carbonitrile] | 0.5 to 2 | 183 to 185 | – |
| CCn1c(-c2ccc(N3CCN(C)S3(=O)=O)cc2)c(C#N)c2ccc(OC)cc21 [Compound 726, 1-ethyl-6-methoxy-2-[4-(5-methyl-1,1-dioxo-1λ^6-[1,2,5]thiadiazolidin-2-yl)-phenyl]-1H-indole-3-carbonitrile] | 0.5 to 2 | 221 to 222 | – |
| CCc1nnc(-c2cn(CC)c3cc(OC)ccc23)o1 [Compound 54, 1-ethyl-6-methoxy-3-(5-ethyl-[1,3,4]oxadiazol-2-yl)-1H-indole] | > 2 | 99 to 101 | – |
| CCn1c(-c2ccc3[nH]c(=O)oc3c2)c(C#N)c2ccc(OC)cc21 [Compound 340, 1-ethyl-6-methoxy-2-(2-oxo-2,3-dihydro-benzooxazol-6-yl)-1H-indole-3-carbonitrile] | > 2 | 243 to 248 | – |
| CCn1cc(-c2cc(-c3ccc(OC)cc3)on2)c2ccc(OC)cc21 [Compound 116, 1-ethyl-6-methoxy-3-[5-(4-methoxyphenyl)-isoxazol-3-yl]-1H-indole] | > 2 | 116 to 118 | – |
| CCNC(=O)Nc1cccc(C#Cc2c(C#N)c3ccc(OC)cc3n2CC)c1 [Compound 220, 1-[3-(3-cyano-1-ethyl-6-methoxy-1H-indol-2-ylethynyl)phenyl]-3-ethyl urea] | 0.5 to 2 | 219 to 223 | – |
| CCn1c(-c2ccc(N3CCNS3(=O)=O)cc2)c(C#N)c2ccc(OC)cc21 [Compound 725, 2-[4-(1,1-dioxo-1λ^6-[1,2,5]thiadiazolidin-2-yl)phenyl]-1-ethyl-6-methoxy-1H-indole-3-carbonitrile] | 0.5 to 2 | 215 to 216 | – |
| CCn1cc(-c2ccno2)c2ccc(OC)cc21 [Compound 58, 1-ethyl-3-isoxazol-5-yl-6-methoxy-1H-indole] | > 2 | 76 to 79 | – |
| CCOC(=O)CNC(=O)Nc1ccc(-c2c(C#N)c3ccc(OCC)cc3n2CC)cc1 [Compound 773, ethyl {3-[4-(3-cyano-6-ethoxy-1-ethyl-1H-indol-2-yl)-phenyl]-ureido}-acetate] | 0.5 to 2 | 191 to 193 | – |
| CCn1c(N2CCN(C(=O)OC(C)(C)C)CC2)c(C#N)c2ccc(C(F)(F)F)cc21 [Compound 785, 4-(3-cyano-1-ethyl-6-trifluoromethyl-1H-indol-2-yl)-piperazine-1-carboxylic acid tert-butyl ester] | 0.5 to 2 | 151 to 153 | – |
| CCOc1ccc(-c2c(C#N)c3ccc(NS(=O)(=O)CC)cc3n2CC)cc1 [Compound 835, Ethanesulfonic acid [3-cyano-2-(4-ethoxyphenyl)-1-ethyl-1H-indol-6-yl]-amide] | 0.5 to 2 | 178 to 179 | – |
| CCn1c(-c2ccc(OCCNS(C)(=O)=O)cc2)c(C#N)c2ccc(OC)cc21 [Compound 268, N-{2-[4-(3-cyano-1-ethyl-6-methoxy-1H-indol-2-yl)-phenoxy]-ethyl}methanesulfonamide] | 0.5 to 2 | 137 to 143 | – |
| CCn1c(-c2ccc(N(CCO)S(C)(=O)=O)cc2)c(C#N)c2ccc(OC)cc21 [Compound 828, N-[4-(3-cyano-1-ethyl-6-methoxy-1H-indol-2-yl)-phenyl]-N-(2-hydroxyethyl)-methanesulfonamide] | 0.5 to 2 | 198 to 200 | – |
| CCn1cc(-c2ccccc2)c2cc([N+](=O)[O-])ccc21 [Compound 41, N-ethyl-3-phenyl-5-nitroindole] | > 2 | 155 to 175 | – |
| CCn1c(C#Cc2ccc(NS(C)(=O)=O)cc2)c(C#N)c2ccc(OC)cc21 [Compound 130, N-[4-(3-cyano-1-ethyl-6-methoxy-1H-indol-2-ylethynyl)-phenyl]-methanesulfonamide] | < 0.5 | 227 to 233 | – |
| CCn1c(C#Cc2ccc(NC=O)cc2)c(C#N)c2ccc(OC)cc21 [Compound 241, N-[4-(3-cyano-1-ethyl-6-methoxy-1H-indol-2-ylethynyl)-phenyl]-formamide] | > 2 | 184 to 188 | – |

— patent US7868037B2 (PTC Therapeutics, Inc., priority 2004, dated 2011)
